Experimental findings from publication PMC5609566, “Elucidation of antimicrobial activity and mechanism of action by N-substituted carbazole derivatives” (Bioorganic & Medicinal Chemistry Letters, 2017) are described below.

Converted amounts (≈) assume the structure as drawn.

In test [1] the target is T1, C. albicans H^+-ATPase (Candida albicans, UniProt P28877).
T1 construct: endogenous in cells; host or cells: C. albicans culture grown in YPD; microsomal membrane preparation
The test can be described thus: Colorimetric ATPase assay (ATP hydrolysis), C. albicans membranes. In kind it is biochemical. The conditions noted are these: pH 7, n = 3. From the text: To investigate the H^+-ATPase inhibitory effect of the compounds we isolated plasma membranes containing H^+-ATPase from S. cerevisiae and C. albicans cells.[15] Plasma membranes isolated from pig kidney as well as endoplasmic reticulum membranes from rabbit hind leg muscle were used to counter-screen compounds for activity against mammalian Na^+,K^+-ATPase and Ca^2+-ATPase, respectively. Prior to their use, fungal plasma membrane batches were validated by determining the maximum ATP hydrolysis activity, the pH optimum of the ATPase activity, and the sensitivity to inhibition by orthovanadate. ATPase activity was determined by a colorimetric assay that measures the amount of inorganic phosphate liberated over time, as described in Kjellerup et al., 2017.[15] Table 2, Table 3, Table 4 list the IC50 values obtained by measuring the concentration dependence of the ATPase activity for the fifteen carbazole compounds with each of the four membrane preparations.
Pma1-containing plasma membranes were prepared from S. cerevisiae RS72 yeast cells that had been transformed with the full-length cDNA of the S. cerevisiae plasma membrane H^+-ATPase isoform PMA1 under control of the PMA1 promoter, using the same procedure as described in Kongstad et al., 2014^1. For the preparation of C. albicans membranes, a 100 ml overnight culture grown in YPD (10 g/L yeast extract (BD, Sparks, MD), 20 g/L Bacto peptone (BD), 20 g/L D-(+)-glucose) was transferred to 1 L YPD and grown for a further 7 h at RT with agitation (150 rpm), followed by cell harvesting and subsequent membrane preparation using the same procedure as described in Kongstad et al., 2014^1. […] Rabbit sarcoplasmic reticulum membranes containing Sarco/Endoplasmic Reticulum Ca^2+ ATPase (SERCA) were kindly provided by Dr. Claus E. Olesen and Dr. Jesper V. Møller, Aarhus University and prepared as described in Andersen et al., 1985^2. Pig kidney Na^+,K^+-ATPase was kindly provided by Dr. Natalya Fedosova, Aarhus University and prepared as described in Klodos et al., 2002^3.
The compound libraries were purchased from Enamine Ltd, Ukraine and Chembridge Corp, USA. ATPase activity was determined by measuring the amount of liberated phosphate from ATP hydrolysis. […] Reactions were initiated by the addition of Na-ATP to a final concentration of 2.5 mM (Pma1 and Na^+,K^+-ATPase) or 5 mM (SERCA), followed by 30 minutes incubation at 30 °C. The amount of liberated phosphate was determined colorimetrically after addition of STOP solution (mixture of L-ascorbic acid, ammonium heptamolybdate tetrahydrate, and HCl to give final concentrations of 65 mM, 2.2 mM, and 189 mM, respectively) with 5 minutes incubation at room temperature (RT) followed by addition of arsenite solution (mixture of NaAsO2, sodium citrate dihydrate, and acetic acid to give final concentrations of 3.1 mM, 28 mM, and 141 mM, respectively). Absorption was measured at 860 nm after an additional 30 minutes incubation at RT.

The subject of test [2] is Aspergillus flavus ATCC MYA-1005. In words: Mold growth inhibition. In kind it is cell-based. The conditions noted are these: Aspergillus flavus ATCC MYA-1005, n=3; read-out: Fungal Growth Inhibition MIC. From the text:
(§1) We subsequently assessed the carbazole series for antifungal activity, as described in Kjellerup et al., 2017.[15] Table 2, Table 3, Table 4, Table 5 list the minimum inhibitory concentrations (MIC) and the minimum fungicidal concentrations (MFC) of the fifteen compounds tested against the yeasts Saccharomyces cerevisiae, Candida albicans, C. krusei, and two isolates of C. glabrata (a wild-type strain ATCC 90030 and a clinical azole-resistant isolate Cg003 with increased efflux pump expression[19]), and the molds Aspergillus fumigatus and A. flavus. MIC was defined as the lowest concentration inhibiting visual growth of the microorganism in RPMI-1640 media. […] However, in several cases antifungal activity against molds was minimal, Table 5.
(§2) Compound hits from the library screening were evaluated against baker yeast S. cerevisiae and C. albicans (ATCC 90028). The minimum inhibitory concentration (MIC) was defined as the lowest concentration inhibiting visual growth of the microorganism and this was determined in triplicate. Standard errors were typically less than 5%. MICs for synthesized compounds were determined on the following fungal isolates: Saccharomyces cerevisiae (ATCC 9763), Candida albicans (SC5314), Candida krusei (ATCC 6258), Candida glabrata (ATCC 90030), Aspergillus flavus (ATCC MYA-1005) and Aspergillus fumigatus (ATCC 13073), which were purchased from American Type Culture Collection, and C. glabrata strain Cg003, which was kindly provided by Julius Subik, Comenius University in Bratislava, Slovak Republic. Cg003 is a clinical isolate, characterized to be resistant to fluconazole and itraconazole due to overexpression of the multidrug resistance efflux pumps Cdr1p and Cdr2p^5. The fungal growth assay was performed as described in Kjellerup et al., 2017^6.

In test [3] the test system is Aspergillus fumigatus ATCC 13073. In words: Mold growth inhibition. In kind it is cell-based. The conditions noted are these: ATCC13073; Aspergillus fumigatus ATCC 13073, n=3; read-out: Fungal Growth Inhibition MIC.
Source text: as §1, §2

The subject of test [4] is Candida glabrata Cg003. In words: Fungal growth inhibition MIC (MFC). In kind it is cell-based. The conditions noted are these: Nakaseomyces glabratus, Candida glabrata Cg003 (clinical azole-resistant isolate); for MIC: RPMI-1640; for MFC: value in brackets.
Source text: as §1, §2

Test [5] concerns Saccharomyces cerevisiae ATCC 9763. In words: Fungal growth inhibition MIC (MFC). Format: cell-based. The conditions noted are these: ATCC9763; for MIC: Saccharomyces cerevisiae ATCC 9763, RPMI-1640; for MFC: Saccharomyces cerevisiae ATCC 9763, value in brackets.
Source text: as §1, §2

Test [6] relates to Candida krusei ATCC 6258. In words: Fungal growth inhibition MIC (MFC). In kind it is cell-based. The conditions noted are these: Pichia kudriavzevii, ATCC6258; for MIC: Candida krusei ATCC 6258, RPMI-1640; for MFC: Candida krusei ATCC 6258, value in brackets.
Source text: as §1, §2

Test [7] concerns Candida glabrata ATCC 90030. In words: Fungal growth inhibition MIC (MFC). Format: cell-based. The conditions noted are these: Nakaseomyces glabratus, ATCC90030, Candida glabrata ATCC 90030 (wild-type); for MIC: RPMI-1640; for MFC: value in brackets.
Source text: as §1, §2

The subject of test [8] is Candida albicans SC5314. In words: Fungal growth inhibition MIC (MFC). Format: cell-based. The conditions noted are these: for MIC: Candida albicans SC5314, RPMI-1640; for MFC: Candida albicans SC5314, value in brackets.
Source text: as §1, §2

T1 sequence (P28877 whole entry): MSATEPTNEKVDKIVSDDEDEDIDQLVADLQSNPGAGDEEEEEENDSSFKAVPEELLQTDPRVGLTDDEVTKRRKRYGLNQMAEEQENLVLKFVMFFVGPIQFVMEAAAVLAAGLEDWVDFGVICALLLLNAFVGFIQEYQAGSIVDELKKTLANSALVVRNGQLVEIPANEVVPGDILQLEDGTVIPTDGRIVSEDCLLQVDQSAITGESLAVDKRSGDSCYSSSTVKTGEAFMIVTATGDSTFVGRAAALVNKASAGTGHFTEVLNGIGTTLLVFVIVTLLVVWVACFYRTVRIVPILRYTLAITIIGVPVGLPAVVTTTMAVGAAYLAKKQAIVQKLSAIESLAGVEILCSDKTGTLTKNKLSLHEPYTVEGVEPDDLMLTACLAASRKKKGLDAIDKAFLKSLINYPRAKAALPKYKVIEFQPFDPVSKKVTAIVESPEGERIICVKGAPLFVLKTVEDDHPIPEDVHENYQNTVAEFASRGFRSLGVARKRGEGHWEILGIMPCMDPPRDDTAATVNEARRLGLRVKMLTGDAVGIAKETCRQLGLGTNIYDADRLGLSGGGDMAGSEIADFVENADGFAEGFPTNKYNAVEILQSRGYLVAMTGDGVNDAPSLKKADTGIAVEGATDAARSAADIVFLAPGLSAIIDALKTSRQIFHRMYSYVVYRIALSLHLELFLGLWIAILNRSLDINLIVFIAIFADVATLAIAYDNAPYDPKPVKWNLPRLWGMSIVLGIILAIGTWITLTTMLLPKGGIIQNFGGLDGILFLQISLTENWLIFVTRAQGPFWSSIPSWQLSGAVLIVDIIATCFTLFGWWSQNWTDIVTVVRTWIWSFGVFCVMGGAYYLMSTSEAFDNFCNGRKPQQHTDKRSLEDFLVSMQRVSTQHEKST

As for `CN1CCN(CC(O)Cn2c3ccc(Cl)cc3c3cc(Cl)ccc32)CC1` (centres unmarked) [Compound 8, 1-(3,6-dichloro-9H-carbazol-9-yl)-3-(4-methylpiperazin-1-yl)propan-2-ol], in test [1], the 50% inhibitory concentration (IC50) (commonly the concentration that inhibits the measured activity by half) came to 26.4 ± 2.5 µM. Besides, the MIC – broadly, the lowest concentration that inhibits growth of the organism – in test [2] is over 75 µM; in test [3], 75 µM (≈ 29.4 µg/mL); in test [4], 58 µM (≈ 22.8 µg/mL); in test [5], 7.5 µM (≈ 2.94 µg/mL); in test [6], 75 µM (≈ 29.4 µg/mL); in test [7], 42 µM (≈ 16.5 µg/mL). The MIC in test [8] is 68 µM (≈ 26.7 µg/mL). The minimal fungicidal concentration (MFC) (commonly the lowest tested concentration that kills the fungus rather than only halting it) in test [4] was 75 µM (≈ 29.4 µg/mL); in test [5], 7.5 µM (≈ 2.94 µg/mL); in test [6], over 75 µM; in test [7], 75 µM (≈ 29.4 µg/mL); in test [8], 75 µM (≈ 29.4 µg/mL).

In test [1], `CCC(C)NCC(O)Cn1c2ccc(Cl)cc2c2cc(Cl)ccc21` (centres unmarked) [Compound 10, 1-(sec-butylamino)-3-(3,6-dichloro-9H-carbazol-9-yl)propan-2-ol] gave an IC50 of 1.1 ± 0.2 µM. Also, the MIC turned out to be 12 µM (≈ 4.38 µg/mL) in test [2]; 3.7 µM (≈ 1.35 µg/mL) in test [3]; 5.6 µM (≈ 2.05 µg/mL) in test [4]; 0.4 µM (≈ 0.146 µg/mL) in test [5]; 2.9 µM (≈ 1.06 µg/mL) in test [6]; 1.2 µM (≈ 0.438 µg/mL) in test [7]. Further, the MIC in test [8] worked out at 3.7 µM (≈ 1.35 µg/mL). Moreover, the MFC turned out to be 7.9 µM (≈ 2.89 µg/mL) in test [4]; 1.2 µM (≈ 0.438 µg/mL) in test [5]; 3.8 µM (≈ 1.39 µg/mL) in test [6]; 3.8 µM (≈ 1.39 µg/mL) in test [7]; 3.8 µM (≈ 1.39 µg/mL) in test [8].

In test [1], `CN1CCN(CCCn2c3ccc(Cl)cc3c3cc(Cl)ccc32)CC1` [Compound 16, 3,6-dichloro-9-(3-(4-methylpiperazin-1-yl)propyl)-9H-carbazole] showed a concentration for half-maximal inhibition (IC50) of 7.1 ± 0.5 µM. For the same compound, the MIC in test [2] was 24 µM (≈ 9.03 µg/mL); in test [3] it was 41 µM (≈ 15.4 µg/mL); in test [4], 7.5 µM (≈ 2.82 µg/mL); in test [5] it was 2.4 µM (≈ 0.903 µg/mL); in test [6] it was 7.5 µM (≈ 2.82 µg/mL); in test [7] it was 7.5 µM (≈ 2.82 µg/mL). In addition, the lowest concentration to inhibit growth in test [8] (MIC) was 24 µM (≈ 9.03 µg/mL). The MFC in test [4] was determined as 7.5 µM (≈ 2.82 µg/mL); in test [5], 2.4 µM (≈ 0.903 µg/mL); in test [6], 7.5 µM (≈ 2.82 µg/mL); in test [7] it was 7.5 µM (≈ 2.82 µg/mL); in test [8], 24 µM (≈ 9.03 µg/mL).

As to `OC(Cn1ccnc1)Cn1c2ccc(Cl)cc2c2cc(Cl)ccc21` (centres unmarked) [Compound 5, 1-(3,6-dichloro-9H-carbazol-9-yl)-3-(1H-imidazol-1-yl)propan-2-ol], the 50% inhibitory concentration (IC50) in test [1] was determined as 19.3 ± 2.6 µM. In addition, the MIC in test [2] was over 75 µM; in test [3] it was over 75 µM; in test [4] it was over 75 µM; in test [5] it was 24 µM (≈ 8.65 µg/mL); in test [6], over 75 µM; in test [7], over 75 µM. In test [8], this compound registered an MIC of 24 µM (≈ 8.65 µg/mL). The MFC in test [4] is over 75 µM; in test [5], 75 µM (≈ 27 µg/mL); in test [6], over 75 µM; in test [7], over 75 µM; in test [8], over 75 µM.

Regarding `CN(C)CCCCn1c2ccc(Cl)cc2c2cc(Cl)ccc21` [Compound 15], in test [1], the IC50 stood at 31.1 ± 4.8 µM. For the same compound, the MIC in test [2] worked out at 75 µM (≈ 25.1 µg/mL); in test [3], 24 µM (≈ 8.05 µg/mL); in test [4], 7.5 µM (≈ 2.51 µg/mL); in test [5], 2.4 µM (≈ 0.805 µg/mL); in test [6], 7.5 µM (≈ 2.51 µg/mL); in test [7], 7.5 µM (≈ 2.51 µg/mL). Also, the MIC in test [8] was determined as 24 µM (≈ 8.05 µg/mL). Also, the MFC came to 24 µM (≈ 8.05 µg/mL) in test [4]; 5 µM (≈ 1.68 µg/mL) in test [5]; 16 µM (≈ 5.36 µg/mL) in test [6]; 7.5 µM (≈ 2.51 µg/mL) in test [7]; 24 µM (≈ 8.05 µg/mL) in test [8].
